# In EP2403490B1, “AN IMPROVED DRY POWDER DRUG DELIVERY SYSTEM” (MannKind Corporation, priority 2009, dated 2010):
# How the values were obtained:
# Assay type in all cases: physicochemical
# [1] = Powder flowability (Hausner ratio, compressibility index, angle of repose, critical orifice testing)
# Source text: The compressibility index (Cl) can be calculated from the Hausner ratio (HR) as C1 = 100 × (1−(1/HR)). [formula]
# FDKP microparticles either unmodified or containing a drug, for example insulin, constitute highly cohesive powders.
# [2] = In vitro performance DPI 2 vs MEDTONE delivery system, laser diffraction and emitted mass (Example 7); conditions: fill weight 10 mg, 4 kPa
# Source text: This system includes dry powder formulations, pre-metered into single-use cartridges and inserted into a high resistance, breath-powered, re-usable MEDTONE(R) inhaler. […] In vitro powder performance for these systems was compared for various parameter of inhaler performance. For DPI 2 a single discharge per cartridge was used as compared to two discharges per cartridge in the MEDTONE(R) system.
# Particle sizing by laser diffraction and quantification of emitted mass as described above were used in these experiments. A laser diffraction instrument (Sympatec HELOS) was adapted with a novel pressurized inhaler chamber to facilitate analysis of powder plumes. MTDS cartridges were discharged twice per determination versus once with DPI 2.
# [3] = Geometric particle size of emitted formulations by VMGD, laser diffraction (Example 6); conditions: 56 % trans
# Source text: Laser diffraction of dry powder formulations emitted from dry powder inhalers is a common methodology employed to characterize the level of de-agglomeration subjected to a powder. The methodology indicates a measure of geometric size rather than aerodynamic size as occurring in industry standard impaction methodologies. Typically, the geometric size of the emitted powder includes a volumetric distribution characterized by the median particle size, VMGD. Importantly, geometric sizes of the emitted particles are discerned with heightened resolution as compared to the aerodynamic sizes provided by impaction methods. Smaller sizes are preferred and result in greater likelihood of individual particles being delivered to the pulmonary tract. Thus, differences in inhaler de-agglomeration and ultimate performance can be easier to resolve with diffraction. In these experiments, an inhaler as specified in Example 3 and a predicate inhaler are tested with laser diffraction at pressures analogous to actual patient inspiratory capacities to determine the effectiveness of the inhalation system to de-agglomerate powder formulations. […] Reported in Table 5 are a VMGD and an efficiency of the container emptying during the testing. […]
# [4] = DPI 2, single discharge, 15 cartridges
# [5] = MEDTONE® (MTDS), two discharges, 30 cartridges
smiles,measurement,setting,value
"O=C(O)/C=C/C(=O)NCCCCC1NC(=O)C(CCCCNC(=O)/C=C/C(=O)O)NC1=O (stereo not shown) [FDKP, bis-3,6-(N-fumaryl-4-aminobutyl)-2,5-diketopiperazine]",angle of repose,[1],40 °
same,Ave. Geometric SD,[2]; [4],3.79 µm
same,Ave. VMGD,[2]; [4],6.84 µm
same,Ave. Geometric SD,[2]; [5],2.94 µm
same,Ave. VMGD,[2]; [5],21.21 µm
same,VMGD,"[3]; DPI 2, SSA 55 m2/g, pressure drop 4 kPa",6.800 micron
same,VMGD,"[3]; MEDTONE®, SSA 55, 4 kPa",21.200 micron
